Reference: patent publication US20240327462A1, “SHORT PEPTIDES, PHARMACEUTICAL COMPOSITIONS COMPRISING THE SAME, AND USES THEREOF IN TREATING NEUROLOGICAL DISEASES” (FU JEN CATHOLIC UNIVERSITY, priority 2023, published 2024)

Legend:
[1] = system: NSC34 cells; test: Neurite outgrowth of NSC34 cells cultured in Sol8-NogoA conditioned medium; format: cell-based, mouse; conditions: Sol8-NogoA CM with peptide 66 ng/ml, 48 hours; PBS in Sol8-NogoA CM 53.6 μm, PBS in Sol8 CM 99.4 μm
Experimental: . After 24-48 hours, the supernatant containing viral particles was collected and centrifuged at a speed of 1,250 rpm, followed by adding to Sol8 cells (ATCC, CRL-2174) pretreated with 8 μg/ml POLYBRENE®. 24 hour later, the fresh DMEM medium containing 10% fetal bovine serum (FBS), 100 units/ml penicillin, 1% streptomycin and 4 ug/ml puromycin was added to the Sol8 cells so as to obtain NogoA-overexpressed Sol8 cells.
The wild-type Sol8 cells and NogoA-overexpressed Sol8 cells (Sol8-NogoA cells) were respectively cultured and differentiated in DMEM medium containing 10% FBS, 100 units/ml penicillin and 1% streptomycin. Two days later, 1 μg/μl of doxycycline was added to the medium so as to induce the expression of target genes. The culture medium was collected and the fresh medium containing doxycycline was added to the Sol8-NogoA cells every 24 hours. The collected culture medium was then centrifuged at a speed of 3,000 rpm for 5 minutes at room temperature, and the supernatant was harvested therefrom served as CM for the following assays.
(§1) NSC34 cells (mouse Neuroblastoma x Spinal Cord-34 cell line) (RRID:CVCL_D356) were cultured in DMEM medium containing 10% FBS, 100 units/ml penicillin and 1% streptomycin. To investigate the effect of the present peptides (including FD1, FD2, FD3 and FD4) on neurons, NSC34 cells were cultivated in differentiation medium (DMEM medium containing 2.5% FBS, 100 units/ml penicillin and 1% streptomycin) for 24 hours, and then continued cultivating in CM obtained from culturing Sol8-NogoA cells (Sol8-NogoA CM) with or without addition of the present peptide (i.e., FD1, FD2, FD3 or FD4) in an amount of 66 ng/ml. The CM with or without containing the present peptide was refreshed daily. Cells were fixed with paraformaldehyde (PFA) for 48 hours, followed by measuring the length of neurite outgrowth using software based the neurites shown on microscopic image. Each data was averaged from three independent experiments and the length presented in each time was averaged from more than 100 counting cells. The effect of the present peptide on improving neurite outgrowth was determined by comparing the neurite length of NSC34 cells treated with the present peptide in Sol8-NogoA CM with that of NSC34 cells treated with phosphate buffered saline (PBS; serving as a control group) in Sol8-NogoA CM.

[2] = system: phosphorylated cofilin (p-cofilin); test: Western blot of phosphorylated cofilin (p-cofilin) in treated NSC34 cells; format: cell-based, mouse; conditions: NSC34 cells in NogoA-overexpressed Sol8 CM with peptide, compared to PBS control normalized as 1
Experimental: as §1
The total proteins extracted from treated NSC34 cells were analyzed by sodium dodecyl-sulfate polyacrylamide gel electrophoresis (SDS-PAGE) on a 12% polyacrylamide gel. After electrophoresis, western blotting was performed. The protein levels of phosphorylated cofilin (p-cofilin) and alpha-tubulin contained in NSC34 cells cultured in medium with addition of either PBS (served as control) or the present peptide (i.e., FD1, FD2, FD3 or FD4) were determined using antibodies specifically against p-cofilin and alpha-tubulin, respectively. The intensity shown on the blot was quantified by software. Each data was averaged from three independent experiments. The relative intensity among groups was based on the comparison with that of control group set as 1.

[3] = system: Tg(mnxl:GFP) zebrafish embryos; test: Axonal branching of motor neurons in Tg(mnxl:GFP) zebrafish embryos; format: in vivo; conditions: microinjected into brain chamber at 20 hpf, examined at 30 hpf; compared to untreated and 16-a.a.-injected control groups
Experimental: The branched primary motor neurons (PMN) derived from caudal primary (CaP) motoneurons located at somites from 11th to 20th of Tg(mnxl:GFP) zebrafish embryos at 30 hours post fertilization (hpf) was examined. The untreated embryos served as control group, the embryos injected with an arbitrary non-functional 16 a.a. served as mock control group, while experimental groups were embryos injected with FD1, FD2, FD3 or FD4. […] Each data was averaged from three independent experiments.
The PBS and present peptides (i.e., FD1, FD2, FD3 and FD4) were respectively microinjected into the brain chamber of Tg (mnxl:GFP) embryos at 20 hpf. After 10 hours, the control embryos, mock control embryos and experimental embryos were monitored by anatomic microscope equipped with fluorescence system and digital camera.

[4] = system: ALS SOD1G93A mice; test: Denervation of neuromuscular junction (NMJ) in ALS SOD1G93A mice; format: in vivo; conditions: 250 ug (about 10 mg/Kg) i.v. weekly from day 60; gastrocnemius muscle of 75-day-old mice; vs PBS-injected mouse
Experimental: (§2) Transgenic mice of the congenic strain ALS SOD1^G93A carrying human SOD1 with the pathogenic G93A mutation (a mouse model of ALS that developed stereotyped phenotypes resembling the symptoms in ALS patients) were purchased from The Jackson Laboratory (JAX). The present peptide (i.e., FD1, FD2, FD3 or FD4) was initiated to inject intravenously in an amount of 250 ug (about 10 mg/Kg) into 60-day-old ALS SOD1^G93A mice. Injection was performed weekly. Injection of PBS served as a control group. The treated mice were monitored daily and analyzed via video tracking software.
To study the denervation of NMJ, the gastrocnemius muscles were extracted from 75-day-old ALS SOD1^G93A mice received with either PBS (control) or the present peptide (FD1, FD2, FD3 or FD4) and analyzed by immunostaining. In brief, the gastrocnemius muscles fixed with paraformaldehyde (PFA) were mounted on glass slides and treated with 2% TRITON™ for one hour. After blocking with PBS containing 5% bovine serum albumin (BSA) for 2 hours, the antibody against either synaptic vesicle protein (synapsin) or alpha-Bungarotoxin (α-BTX) was added to the slides, followed by incubating at 4° C. for 16 hours. The slides were washed with PBS containing 2% TRITON™ for three times, and then Cy2-conjugated anti-rabbit antibody and ALEXA FUOR™ 647-conjugated anti-mouse antibody were respectively added to the slides, followed by incubating at 4° C. for 16 hours. The slides were washed with PBS containing 2% TRITON™ for three times. The axon terminal of motoneurons via synapsin labeled by green fluorescent signal, while detected the acetylcholine receptor on motor endplates via α-BTX labeled by red fluorescent signal. […]. The percentage of yellow signal (green signal overlapped with red signal) among total red signal shown on the 600× magnified image area (400×400 pixels) of muscle sample from PBS- and peptide-injected SOD1-G93A ALS mouse was calculated using software. Each experiment was calculated from 13-15 images.

[5] = system: ALS SOD1G93A mice; test: Moving capability of ALS model mice (SOD1 G93A); format: in vivo, mouse; conditions: 250 ug (about 10 mg/Kg) i.v. weekly from day 60; measured at 124 days after birth; vs PBS-injected control ALS mice
Experimental: as §2
The moving capability of ALS model mice (SOD1 G93A) injected with PBS or the present peptide (i.e., FD1, FD2, FD3 or FD4) was determined via measuring the moving trajectory of each treated mouse at 124 days after birth.

[6] = system: ALS SOD1G93A mice; test: Survival of ALS SOD1G93A mice; format: in vivo, mouse; conditions: 250 ug (about 10 mg/Kg) i.v. weekly from day 60; for cumulated survival rate compared to PBS-injected control mice: 5 mice per group vs 7 PBS controls; for average survival days: 5 mice per group, PBS control 130.0
Experimental: as §2
The initial total number of ALS mice in each group (7 and 5 samples for control and FD-treated groups, respectively) was set as a 100% survival rate. During experimental period, once the ALS mouse was dead, the number and its survival days were recorded, and the cumulative survival rate was counted. When all ALS mice within the experimental group were dead, the cumulative survival rate was considered as 0%. In case that either the weight loss of a mouse was greater than 20% of original or a mouse that was not capable to eat and drink normally, euthanasia was performed and considered it as a non-survival sample. The survival days for each group were averaged from seven samples for PBS-injected control group and five samples for FD-injected experimental groups.

Sequence | neurite length of NSC34 cells [1] | p-cofilin protein level [2] | percentage of zebrafish embryos exhibiting branched motor neurons [3] | percentage of co-localized synapsin-1 and α-BTX (NMJ integrity) [4] | moving distance [5] | cumulated survival rate compared to PBS-injected control mice [6] | average survival days [6]
WEAFARGTKPLMDEVV [FD2, mutant of FD1, alanine at position 10 substituted with proline] | 66.6 μm | significantly reduced | significantly increased | significantly higher | significantly improved | longer survival time | 147.0 days
WEAFARGTKALMDEVV [FD1, short peptide derived from human PGK1, 16 a.a] | 89.2 μm | significantly reduced | significantly increased | significantly higher | significantly improved | longer survival time | 140.0 days
WEAFARGTKALMRQVV [FD4, mutant of FD1, D13 substituted with R and E14 with Q] | 95.8 μm | significantly reduced | significantly increased | significantly higher | significantly improved | longer survival time | 139.0 days
WEAFARGTRALMDEVV [FD3, mutant of FD1, lysine at position 9 substituted with arginine] | 88.2 μm | significantly reduced | significantly increased | significantly higher | significantly improved | not shown difference | 130.8 days
